Measured values: patent US20230303552A1, “ARYLSULFONYL DERIVATIVES AND THEIR USE AS MUSCARINIC ACETYLCHOLINE RECEPTOR M5 INHIBITORS” (Vanderbilt University, priority 2020, published 2023)

Biological target: T1, human M5 receptors (hM5) (Homo sapiens, UniProt P08912)
T1 construct: expressed in transfected cells
T1 sequence (P08912 1-532): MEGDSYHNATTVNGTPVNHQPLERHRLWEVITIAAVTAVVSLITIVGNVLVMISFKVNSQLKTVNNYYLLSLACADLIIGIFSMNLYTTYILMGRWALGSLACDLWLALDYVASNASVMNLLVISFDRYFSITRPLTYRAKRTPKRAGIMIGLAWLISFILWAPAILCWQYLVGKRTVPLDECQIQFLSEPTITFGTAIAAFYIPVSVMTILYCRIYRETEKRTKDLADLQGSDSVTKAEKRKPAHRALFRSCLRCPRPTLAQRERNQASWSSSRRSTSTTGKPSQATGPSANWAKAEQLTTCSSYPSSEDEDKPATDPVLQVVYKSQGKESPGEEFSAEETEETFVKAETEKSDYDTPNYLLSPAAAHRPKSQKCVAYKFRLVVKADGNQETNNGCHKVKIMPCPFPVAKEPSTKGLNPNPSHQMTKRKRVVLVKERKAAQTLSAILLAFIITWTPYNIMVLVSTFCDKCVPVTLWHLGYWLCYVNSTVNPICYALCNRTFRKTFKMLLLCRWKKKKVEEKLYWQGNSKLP
Experiment: Cell-based functional calcium mobilization assay of mAChR M5 activity (inhibition of EC80 acetylcholine response) in CHO cells
Settings: CHO cells stably expressing hM5; for IC50: calcium flux (Fluo-4), EC80 acetylcholine addition; for EC80 MIN: minimum of EC80 acetylcholine response, normalized to maximum acetylcholine response
Experimental: All functional cell-based assays were performed essentially as previously described (Marlo et al., Mol.Pharm. 2009, 75(3), 577-588; Brady et al., J. Pharm. & Exp. Ther. 2008, 327, 941-953). Initial, single point (10 µM) competitive and non-competitive inhibitor characterization was performed in stable Chinese Hamster Ovary (CHO) cell lines constitutively expressing human M5 receptors. These were plated at 15,000 cells per 20 µL per well in Greiner 384-well black-walled, TC-treated, clear-bottomed plates (Fisher) in Ham’s F12 medium supplemented with 10% FBS and 20 mM HEPES. Cells were incubated overnight at 37° C. under 5% CO2. The following day, medium was exchanged with assay buffer (Hank’s Balanced Salt Solution supplemented with 20 mM HEPES and 2.5 mM Probenecid, pH 7.4) leaving 20 µL of assay buffer in each well. This was followed by the addition of 20 µL of 2.3 µM of Fluo-4 AM (Invitrogen) in assay buffer (final concentration 1.15 µM). The cells were then incubated 50 minutes at 37° C. under 5% CO2. The assay buffer plus dye was then exchanged with fresh assay buffer leaving a volume of 20 µL in each well. Test compounds were diluted into assay buffer to a 2X (20 µM) concentration in 0.2% dimethylsulfoxide (DMSO) in columns 3 - 22 with matching DMSO concentration in columns 1, 2, 23, and […]; compounds were added to the assay for a final concentration of 10 µM and a final DMSO concentration of 0.1%. Acetylcholine (Sigma-Aldrich) was prepared to provide 5X concentrations of EC20, EC80, and ECmax in the triple-addition assay, providing a signal window to view agonism, potentiation, and inhibition of the acetylcholine response as well as a means to normalize to the maximum acetylcholine response.
Either an FDSS (Hamamatsu) or Panoptic (WaveFront Biosciences) kinetic imaging plate reader was used for assay execution and measurement of calcium flux. After establishing baseline fluorescence, test compounds (20 µL) were added to the cells using the reader’s integrated pipettor and allowed to equilibrate for 140 seconds before addition of the EC20 concentration of acetylcholine (10 µL) along with vehicle in selected DMSO-only wells in the outer two columns. The EC80 concentration of acetylcholine (10 µL) was added 125 seconds after the EC20 addition along with ECmax concentration in the wells receiving vehicle in the second addition. The raw fluorescence data from each well was normalized to the corresponding initial fluorescence reading (static ratio). The maximum fluorescence value following each addition was determined and the minimum value within that same timeframe was subtracted for each well then normalized to the average of the ECmax maximum-minimum response, providing a %AChmax value for each addition for each well. The single point values represent mean values determined within the EC80 addition timeframe obtained from at least three independent determinations performed in triplicate or greater (error bars represent +/- SEM) unless otherwise specified.
Further characterization of competitive and non-competitive inhibitor compounds (compound potency and mAChR subtype-selectivity) was performed on the FDSS with calcium mobilization assays performed as previously described (Marlo et al., 2009; Brady et al., 2008) and in a format similar to that described above using the same reagents. CHO cells stably expressing hM1, hM2/Gqi5, hM3, hM4/Gqi5, hM5, rM1, rM2/Gqi5, rM3, rM4/Gqi5, or rMs were plated in the manner described above. A ten-point concentration range of test compound was serial diluted in assay buffer to 2X final concentration and acetylcholine was diluted in assay buffer to 5X of the EC20 and EC80 concentrations, determined empirically and 5X maximal (2 mM final concentration) stock concentrations. FDSS protocols were carried out as described above; the static ratio was calculated and the minimum response subtracted from the maximum response within the timeframe of each addition. […]

| SMILES | IC50 | EC80 MIN |
| --- | --- | --- |
| O=C(Nc1ccc2scnc2c1)[C@H]1CCN(S(=O)(=O)c2ccc3c(c2)CCO3)C[C@@H]1F (racemic) [Compound 86, Trans-(rac)-N-(Benzo[d]thiazol-5-yl)-1-((2,3-Dihydrobenzofuran-5-yl)Sulfonyl)-3-Fluoropiperidine-4-Carboxamide] | 177 nM | 2% |
| CC1Cc2cc(S(=O)(=O)N3CCC(C(=O)Nc4ccc5scnc5c4)CC3)ccc2O1 (racemic) [Compound 87, (rac)-N-(benzo[d]thiazol-5-yl)-1-((2-methyl-2.3-dihydrobenzofuran-5-yl)sulfonyl)piperidine-4-carboxamide] | > 10000 nM |  |
| C[C@@H]1CN(S(=O)(=O)c2ccc3c(c2)CCO3)CC[C@@H]1C(=O)Nc1ccc2scnc2c1 (racemic) [Compound 92, cis-(rac)-,N^_ (benzo[d]thiazol-5-yl)-1-((2,3-dihydrobenzofuran-5-yl)sulfonyl)-3-methylpiperidine-4-carboxamide] | 631 nM | 4% |
| C[C@@H]1CN(S(=O)(=O)c2ccc3ncsc3c2)CC[C@@H]1C(=O)Nc1ccc2scnc2c1 (racemic) [Compound 93, cis-(rac)-N-(benzo[d]thiazol-5-y1)-1-(benzo[d]thiazol-6-ylsulfonyl)-3-methylpiperidine-4-carboxamide] | 2940 nM | 4% |
| C[C@@H]1CN(S(=O)(=O)c2ccc(Cl)nc2)CC[C@@H]1C(=O)Nc1ccc2scnc2c1 (racemic) [Compound 94, cis-(rac)-N-(benzo[d]thiazol-5-yl)-1-((6-chloropyridin-3-yl)sulfonyl)-3-methylpiperidine-4-carboxamide] | 4570 nM | 4% |
| Cc1nn(C)cc1S(=O)(=O)N1CC[C@H](C(=O)Nc2ccc3scnc3c2)[C@H](C)C1 (racemic) [Compound 95, cis-(rac)-,N^_ (benzo[d]thiazol-5-yl)-1-((1,3-dimethyl-1H-pyrazol-4-yl)sulfonyl)-3-methylpiperidine-4-carboxamide] | 4490 nM | 5% |
| C[C@@H]1CN(S(=O)(=O)c2cccc3nsnc23)CC[C@@H]1C(=O)Nc1ccc2scnc2c1 (racemic) [Compound 96, cis-(rac)-1-(benzo[c][1,2,5]thiadiazol-4-ylsulfonyl)-N-(benzo[d]thiazol-5-yl)-3-methylpiperidine-4-carboxamide] | 1110 nM | 3% |
| C[C@@H]1C[C@H](C(=O)Nc2ccc3scnc3c2)CCN1S(=O)(=O)c1ccc2c(c1)CCO2 (racemic) [Compound 97, cis-(rac)-N-(benzo[d]thiazol-5-yl)-1-((2,3-dihydrobenzofuran-5-yl)sulfonyl)-2-methylpiperidine-4-carboxamide] | 159 nM | 2% |
| Cc1nn(C)cc1S(=O)(=O)N1CC[C@@H](C(=O)Nc2ccc3scnc3c2)C[C@H]1C (racemic) [Compound 98, cis-(rac)-,N^_ (benzo[d]thiazol-5-yl)-1-((1,3-dimethyl-1H-pyrazol-4-yl)sulfonyl)-2-methylpiperidine-4-carboxamide] | 324 nM | 3% |
| C[C@@H]1C[C@H](C(=O)Nc2ccc3scnc3c2)CCN1S(=O)(=O)c1cccc2nsnc12 (racemic) [Compound 99, cis-(rac)-1-(benzo[c][1,2.5]thiadiazol-4-ylsulfonyl)-N-(benzo[d]thiazol-5-yl)-2-methylpiperidine-4-carboxamide] | 389 nM | 3% |
| C[C@@H]1CN(S(=O)(=O)c2cccnc2)CC[C@@H]1C(=O)Nc1ccc2scnc2c1 (racemic) [Compound 103, cis-(rac)-N-(benzo[d]thiazol-5-yl)-3-methyl-1-(pyridin-3-ylsulfonyl)piperidine-4-carboxamide] | > 10000 nM | 5% |
| C[C@H]1CN(S(=O)(=O)c2ccc3c(c2)CCO3)CC[C@@H]1C(=O)Nc1ccc2scnc2c1 (racemic) [Compound 116, trans-(rac)-N-(benzo[d]thiazol-5-yl)-1-((2,3-dihydrobenzofuran-5-yl)sulfonyl)-3-methylpiperidine-4-carboxamide] | 1540 nM | 3% |
| C[C@H]1CN(S(=O)(=O)c2ccc3ncsc3c2)CC[C@@H]1C(=O)Nc1ccc2scnc2c1 (racemic) [Compound 117, trans-(rac)-N-(benzo[d]thiazol-5-yl)-1-(benzo[d]thiazol-6-ylsulfonyl)-3-methylpiperidine-4-carboxamide] | 8920 nM | 5% |
| C[C@H]1CN(S(=O)(=O)c2ccc(Cl)nc2)CC[C@@H]1C(=O)Nc1ccc2scnc2c1 (racemic) [Compound 118, trans-(rac)-N-(benzo[d]thiazol-5-yl)-1-((6-chloropyridin-3-yl)sulfonyl)-3-methylpiperidine-4-carboxamide] | 803 nM | 4% |
| C[C@H]1CN(S(=O)(=O)c2cccnc2)CC[C@@H]1C(=O)Nc1ccc2scnc2c1 (racemic) [Compound 119, trans-(rac)-N-(benzo[d]thiazol-5-yl)-3-methyl-1-(pyridin-3-ylsulfornyl)piperidine-4-carboxamide] | 982 nM | 4% |
| C[C@@H]1C[C@@H](C(=O)Nc2ccc3scnc3c2)CCN1S(=O)(=O)c1ccc(Cl)nc1 (racemic) [Compound 120, trans-(rac)-N-(benzo[d]thiazol-5-yl)-1-((6-chloropyridin-3-yl)sulfonyl)-2-methylpiperidine-4-carboxamide] | 275 nM | 3% |
| C[C@@H]1C[C@@H](C(=O)Nc2ccc3scnc3c2)CCN1S(=O)(=O)c1cccc2nsnc12 (racemic) [Compound 121, trans-(rac)-1-(benzo[c][1,2,5]thiadiazol-4-ylsulfonyl-N-(benzo[d]thiazol-5-yl)-2-methylpiperidine-4-carboxamide] | 449 nM | 3% |
| C[C@@H]1C[C@@H](C(=O)Nc2ccc3scnc3c2)CCN1S(=O)(=O)c1ccc2c(c1)CCO2 (racemic) [Compound 122, trans-(rac)-N-(benzo[d]thiazol-5-yl)-1-((2.3-dihydrobenzofuran-5-yl)sulfonyl)-2-methylpiperidine-4-carboxamide] | 94 nM | 3% |
| Cc1nn(C)cc1S(=O)(=O)N1CC[C@H](C(=O)Nc2ccc3scnc3c2)C[C@H]1C (racemic) [Compound 123, trans-(rac)-N-(benzo[d]thiazol-5-yl)-1-((1,3-dimethyl-1H-pyrazol-4-yl)sulfonyl)-2-methylpiperidine-4-carboxamide] | 174 nM | 3% |
| CC1(C)COc2ccc(S(=O)(=O)N3CC4CC4(C(=O)Nc4ccc5scnc5c4)C3)cc21 (racemic) [Compound 130, (rac)-N-(benzo[d]thiazol-5-yl)-3-((3,3-dimethyl-2,3-dihydrobenzofuran-5-yl)sulfonyl)-3-azabicyclo[3.1.0)hexane-1-carboxamide] | > 10000 nM | 62% |
